# Reference: ChEMBL document CHEMBL1127920, “Synthesis and biological activity of 14-hydroxydocetaxel” (Bioorg Med Chem Lett, 1994)
# Tests used:
# Format in all cases: functional, cell-based
# [1] = test system: MCF7; experiment: Cytotoxicity was evaluated in vitro against MCF-7 (mammary carcinoma) human tumor cell lines
# [2] = test system: A121; experiment: Cytotoxicity was evaluated in vitro against A121 (ovarian carcinoma) human tumor cell lines
# [3] = test system: A549; experiment: Cytotoxicity was evaluated in vitro against A549 (non-small cell lung carcinoma) human tumor cell lines
# [4] = test system: HT-29; experiment: Cytotoxicity was evaluated in vitro against HT-29 (colon carcinoma) human tumor cell lines
SMILES,IC50 [1] [nM],IC50 [2] [nM],IC50 [3] [nM],IC50 [4] [nM]
CC(=O)O[C@@]12CO[C@@H]1C[C@H](O)[C@@]1(C)C(=O)[C@H](O)C3=C(C)[C@@H](OC(=O)[C@H](O)[C@@H](NC(=O)OC(C)(C)C)c4ccccc4)C[C@@](O)([C@@H](OC(=O)c4ccccc4)[C@H]21)C3(C)C [DOCETAXEL],1,1.2,1,1.2
CC(=O)O[C@@]12CO[C@@H]1C[C@H](O)[C@@]1(C)C(=O)[C@H](O)C3=C(C)[C@@H](OC(=O)[C@H](O)[C@@H](NC(=O)OC(C)(C)C)c4ccccc4)[C@@H]4OC(C)(C)O[C@]4([C@@H](OC(=O)c4ccccc4)C12)C3(C)C (some centres not stated),34,46,18,21
CC(=O)O[C@@]12CO[C@@H]1C[C@H](O)[C@@]1(C)C(=O)[C@H](O)C3=C(C)[C@@H](OC(=O)[C@H](O)[C@@H](NC(=O)OC(C)(C)C)c4ccccc4)[C@H](O)[C@@](O)([C@@H](OC(=O)c4ccccc4)C12)C3(C)C (some centres not stated),1.9,3.3,0.8,2.1
